Experimental data published in US11452762B2, “Method of treating rhinitis with C-type natriuretic peptides” (IGISU Co., Ltd., priority 2009, dated 2022).
Entries after “also recorded” stand apart in the source; their conditions may differ.

Experiments:
[1] = tested on: patients with rhinitis, allergic rhinitis in particular; assay: Administration tests of CNP, BNP or ANP nasal solution preparations in rhinitis patients (case studies); type: in vivo, human; settings: for Symptom improvement (severity level before → after application): 50 μg/ml nasal solution, one spray (130 μl, 6.5 μg) in each nostril once or twice a day, each value one patient (Case); for Effect on nasal itching / tickling feeling (in words): 50 μg/ml twice a day; for Time after application until slight improvement in nasal itching: initial application; for Overall effect on rhinitis symptoms (in words): patients with rhinitis, BNP versus ANP
Method: Diagnosis, evaluation of symptoms, and examination of the CNP nasal drop preparations, BNP nasal drop preparations and ANP nasal drop preparation were performed as follows. The subjects are patients in whom conventional external medicines such as steroids are not sufficiently effective, or patients in whom the use of steroids must be avoided due to local side effects such as nasal irritation and dryness. Diagnosis and treatment of these subjects were performed by the present applicant as a medical doctor. Severity evaluation of symptoms of allergic rhinitis was performed, in principle, in accordance with “Guidelines for medical care of nasal allergies, 2009 edition” (edited by the committee for creation of guidelines for medical care of nasal allergies), by classifying into 5 stages as shown below. Here, “mixed type” refers to the cases wherein both of the sneezing attack or rhinorrhea and the nasal occlusion were presented with the same severity. […] In the above table, evaluation scores for sneezing fit, rhinorrhea and nasal occlusion are as described in the table below. […] Administration tests of the nasal solution preparations of the present invention were performed by, in principle, spraying the CNP nasal solution, BNP nasal solution or ANP nasal solution used to fill a nasal spraying device twice a day at awakening time and before bedtime, with one spray in each nostril at each time. […] Prior to the application of CNP preparations, BNP preparations or ANP preparation, the subjects' history was obtained, scratch tests for allergens were performed and diagnosis was made.

pollen allergy = settings: after 2 weeks of application, spraying once a day; cited from earlier work
[2] = 50 μg/ml, initial or continued application, listed as ANP nasal solution

In the case of CC[C@H](C)[C@@H]1NC(=O)[C@H](CCCNC(=N)N)NC(=O)[C@H](CC(=O)O)NC(=O)[C@H](CCSC)NC(=O)[C@H](CCCCN)NC(=O)[C@H](CCCNC(=N)N)NC(=O)CNC(=O)[C@H](Cc2ccccc2)NC(=O)[C@@H](NC(=O)CNC(=O)[C@H](CO)NC(=O)CNC(=O)[C@H](CCC(N)=O)NC(=O)[C@@H](NC(=O)[C@H](CCSC)NC(=O)[C@H](CCCCN)NC(=O)[C@@H]2CCCN2C(=O)[C@@H](N)CO)C(C)C)CSSC[C@@H](C(=O)N[C@@H](CCCCN)C(=O)N[C@H](C(=O)N[C@@H](CC(C)C)C(=O)N[C@@H](CCCN=C(N)N)C(=O)N[C@@H](CCCN=C(N)N)C(=O)N[C@@H](Cc2cnc[nH]2)C(=O)O)C(C)C)NC(=O)CNC(=O)[C@H](CC(C)C)NC(=O)CNC(=O)[C@H](CO)NC(=O)[C@H](CO)NC(=O)[C@H](CO)NC(=O)[C@H](CO)NC1=O [BNP nasal solution preparation, human BNP-32], the “Local irritation symptoms / side effects” value ([1]; 50 μg/ml nasal spray) was “later. No irritation”, the “Local irritation symptoms / side effects” value ([1]; 50 μg/ml nasal spray, listed as BNP nasal solution) was “local irritation symptoms did not occur; also recorded: no irritation symptoms were observed” and the “Local irritation symptoms / side effects” value ([1]; 100 μg/ml nasal spray) was “it does not exhibit such side effects”. The “Local irritation symptoms / side effects” value ([1]; 200 μg/ml nasal spray, listed as BNP nasal solution) was “no local irritation symptoms or feelings of discomfort”.
For CC[C@H](C)[C@@H]1NC(=O)[C@H](CCCNC(=N)N)NC(=O)[C@H](CC(=O)O)NC(=O)[C@H](CC(C)C)NC(=O)[C@H](CCCCN)NC(=O)[C@H](CC(C)C)NC(=O)CNC(=O)[C@H](Cc2ccccc2)NC(=O)[C@@H](NC(=O)CNC(=O)[C@H](CCCCN)NC(=O)[C@H](CO)NC(=O)[C@H](CC(C)C)NC(=O)CN)CSSC[C@@H](C(=O)O)NC(=O)CNC(=O)[C@H](CC(C)C)NC(=O)CNC(=O)[C@H](CO)NC(=O)[C@H](CCSC)NC(=O)[C@H](CO)NC(=O)CNC1=O [CNP nasal solution preparation, human CNP-22], the “Local irritation symptoms / side effects” value ([1]; 100 μg/ml nasal spray) was “side effects such as local irritation symptoms were not observed; also recorded: No local irritation symptoms were observed; also recorded: No local side effects such as irritation, as well as no systemic side effects such as drowsiness were observed; also recorded: without irritation or local side effects; also recorded: without any irritation symptoms” and the “Permeability of the nasal solution (in words)” value ([1]; 100 μg/ml nasal spray) was “good and good permeability”.
In the case of C[C@@H]1C[C@H]2[C@@H]3CCC4=CC(=O)C=C[C@]4(C)[C@@]3(Cl)[C@@H](O)C[C@]2(C)[C@@]1(OC(=O)c1ccco1)C(=O)CCl [Mometasone furoate hydrate], the “Degree of improvement in nasal occlusion” value (pollen allergy) is listed as 30-40% and the “Degree of improvement in overall symptoms” value (pollen allergy) is listed as 40-50%.
In the case of “human ANP-28 [ANP nasal solution preparation]”, the “Symptom improvement (severity level before → after application)” value [1] was “Severe → severe”, the “Symptom improvement (severity level before → after application)” value ([1]; listed as ANP nasal solution) was “severe before the ANP application to still severe” and the “Effect on nasal itching / tickling feeling (in words)” value [1] was “improved slightly”. For the same compound, the “Effect on nasal itching / tickling feeling (in words)” value ([1]; listed as ANP nasal solution) was “slightly improved”, the “Time after application until slight improvement in nasal itching” value ([1]; 50 μg/ml) was “At 1 hr later, a slight” and the “Time after application until slight improvement in nasal itching” value ([1]; 50 μg/ml, listed as ANP nasal solution) was “One hour later”. For the same compound, the “Effect on nasal occlusion (in words)” value ([1]; 50 μg/ml, initial or continued application) was “sensation was not improved”, the “Effect on nasal occlusion (in words)” value [1, 2] was “not improved; also recorded: no changes” and the “Effect on rhinorrhea / runny nose (in words)” value [1, 2] was “did not stop; also recorded: no changes; also recorded: not improved; also recorded: No improvement”. The “Number of nose blows under application” value ([1]; 50 μg/ml, once or twice a day) was “approximately 20 times a day”, the “Persistence of the effects of an application (in words)” value ([1]; 50 μg/ml, one application, listed as ANP nasal solution) was “persistence was short” and the “Time after application until nasal passages opened” value ([1]; 50 μg/ml, subjective, listed as ANP nasal solution) was 20 min. For the same compound, the “Overall effect on rhinitis symptoms (in words)” value [1] was “no immediate effect was observed” and the “Overall effect on rhinitis symptoms (in words)” value ([1]; listed as ANP preparations) was “no improvements or worsening”.
